# Laboratory results: patent publication US20030086873A1, “Myocardial imaging agent and preparation method thereof” (priority 2001, published 2003)
# Assay: Biological distribution in the bodies of Kunming mice after caudal vein injection
# Type: in vivo
# Experimental: The complexes [^99mTc(CO)3(OH2)3]^+ and [^99mTc(CO)3(MIBI)3]^+ prepared in Example 1 were separately injected in the caudal vein of Kunming mice. The experiment was conducted on three mice within each time period, and the injection's activity was 925 KBq. The radioactivity of individual organs's tissue was measured at 5, 15, 30, and 60 minutes after the injection, and the results are represented by radioactive uptake rate per gram of tissue.
# The results of the distribution of [^99mTc(CO)3(OH2)3]^+ in the mice's bodies are included in Tables 2; the results for [^99mTc(CO)3(MIBI)3]^+ are presented in Table 3. The value “% ID/g” is the percentage of the injection's total radioactivity that each gram of tissue accounts for i.e., the radioactive uptake rate per gram of tissue, with ID standing for “injected dose.”
substance,measurement,setting,value
[^99mTc(CO)3(OH2)3]^+ [reference compound],Blood radioactive uptake per gram of tissue,5 Minutes after injection,9.27 ± 1.13 % ID/g
same,Bones radioactive uptake per gram of tissue,5 Minutes after injection,2.82 ± 0.95 % ID/g
same,Brain radioactive uptake per gram of tissue,5 Minutes after injection,0.31 ± 0.09 % ID/g
same,Heart radioactive uptake per gram of tissue,5 Minutes after injection,2.68 ± 0.88 % ID/g
same,Kidneys radioactive uptake per gram of tissue,5 Minutes after injection,18.29 ± 4.22 % ID/g
same,Liver radioactive uptake per gram of tissue,5 Minutes after injection,10.33 ± 0.82 % ID/g
same,Lungs radioactive uptake per gram of tissue,5 Minutes after injection,6.53 ± 1.41 % ID/g
same,Muscles radioactive uptake per gram of tissue,5 Minutes after injection,1.47 ± 0.37 % ID/g
same,Spleen radioactive uptake per gram of tissue,5 Minutes after injection,2.02 ± 1.02 % ID/g
same,Blood radioactive uptake per gram of tissue,15 Minutes after injection,6.04 ± 0.73 % ID/g
same,Bones radioactive uptake per gram of tissue,15 Minutes after injection,1.68 ± 0.22 % ID/g
same,Brain radioactive uptake per gram of tissue,15 Minutes after injection,0.27 ± 0.03 % ID/g
same,Heart radioactive uptake per gram of tissue,15 Minutes after injection,2.39 ± 0.66 % ID/g
same,Kidneys radioactive uptake per gram of tissue,15 Minutes after injection,14.25 ± 1.78 % ID/g
same,Liver radioactive uptake per gram of tissue,15 Minutes after injection,11.95 ± 0.66 % ID/g
same,Lungs radioactive uptake per gram of tissue,15 Minutes after injection,5.38 ± 0.76 % ID/g
same,Muscles radioactive uptake per gram of tissue,15 Minutes after injection,1.46 ± 0.48 % ID/g
same,Spleen radioactive uptake per gram of tissue,15 Minutes after injection,2.38 ± 0.37 % ID/g
same,Blood radioactive uptake per gram of tissue,30 Minutes after injection,5.79 ± 0.66 % ID/g
same,Bones radioactive uptake per gram of tissue,30 Minutes after injection,2.38 ± 0.54 % ID/g
same,Brain radioactive uptake per gram of tissue,30 Minutes after injection,0.29 ± 0.06 % ID/g
same,Heart radioactive uptake per gram of tissue,30 Minutes after injection,2.39 ± 0.56 % ID/g
same,Kidneys radioactive uptake per gram of tissue,30 Minutes after injection,13.88 ± 1.02 % ID/g
same,Liver radioactive uptake per gram of tissue,30 Minutes after injection,10.83 ± 1.68 % ID/g
same,Lungs radioactive uptake per gram of tissue,30 Minutes after injection,5.37 ± 0.78 % ID/g
same,Muscles radioactive uptake per gram of tissue,30 Minutes after injection,1.66 ± 0.61 % ID/g
same,Spleen radioactive uptake per gram of tissue,30 Minutes after injection,2.94 ± 0.69 % ID/g
same,Blood radioactive uptake per gram of tissue,60 Minutes after injection,4.50 ± 0.72 % ID/g
same,Bones radioactive uptake per gram of tissue,60 Minutes after injection,1.65 ± 0.12 % ID/g
same,Brain radioactive uptake per gram of tissue,60 Minutes after injection,0.22 ± 0.03 % ID/g
same,Heart radioactive uptake per gram of tissue,60 Minutes after injection,2.08 ± 0.31 % ID/g
same,Kidneys radioactive uptake per gram of tissue,60 Minutes after injection,12.28 ± 2.32 % ID/g
same,Liver radioactive uptake per gram of tissue,60 Minutes after injection,10.73 ± 0.90 % ID/g
same,Lungs radioactive uptake per gram of tissue,60 Minutes after injection,5.19 ± 1.18 % ID/g
same,Muscles radioactive uptake per gram of tissue,60 Minutes after injection,1.37 ± 0.80 % ID/g
same,Spleen radioactive uptake per gram of tissue,60 Minutes after injection,3.20 ± 0.80 % ID/g
same,Specific concentration in tissues / heart,in words,no specific concentration
same,Radioactive retention,"within 60 minutes, in words",good radioactive retention
